Where two headings read alike, the source gives them in different places.
Assays:
[1] = biological target: T1, recombinant human H3 histamine receptor (Homo sapiens, UniProt Q9Y5N1); assay: Histamine H3 receptor radioligand binding; conditions: [3H]R(−)-α-Methylhistamine 3 nM, human rCHO-K1 cell membranes; up to 30 μM
T1 construct: expressed in transfected cells; host or cells: CHO cells (membranes)
Method: (§1) The radioligands used are specific for each receptor subtype and the assay conditions are described in Table 2. […] Ki is obtained using the Cheng Prusoff correction using experimental Kd vales that are determined under these assay conditions.

[2] = biological target: T2, recombinant human M2 muscarinic acetylcholine receptor (Homo sapiens, UniProt P08172); assay: Muscarinic M2 receptor radioligand binding; conditions: 3H-N-Methylscopolamine 0.8 nM, CHO cell membranes
T2 construct: expressed in transfected cells; host or cells: CHO cells (membranes)
T2 sequence (P08172 1-466): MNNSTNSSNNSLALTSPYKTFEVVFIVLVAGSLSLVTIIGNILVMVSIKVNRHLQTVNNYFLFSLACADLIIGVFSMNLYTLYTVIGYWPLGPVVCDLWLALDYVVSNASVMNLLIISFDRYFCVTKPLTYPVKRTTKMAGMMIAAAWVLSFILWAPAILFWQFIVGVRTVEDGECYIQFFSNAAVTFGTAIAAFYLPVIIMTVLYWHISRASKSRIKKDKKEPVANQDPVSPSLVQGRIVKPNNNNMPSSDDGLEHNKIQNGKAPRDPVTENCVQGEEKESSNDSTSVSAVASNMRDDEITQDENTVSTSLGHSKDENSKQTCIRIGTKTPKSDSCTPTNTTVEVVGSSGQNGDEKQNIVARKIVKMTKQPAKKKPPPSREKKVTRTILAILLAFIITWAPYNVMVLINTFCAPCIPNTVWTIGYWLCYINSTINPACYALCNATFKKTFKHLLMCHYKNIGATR

[3] = tested on: CD-1 male mice (visceral pain); assay: Analgesic assay: acetic acid writhing; assay type: in vivo; conditions: Dose 10 mg/kg, single pretreatment 30 min before IP 0.5% acetic acid; contractions counted 0-20 min
Method: An analgesic assay was used to determine whether a given compound can reduce and/or prevent visceral pain in mice.
Mice were treated according to standard protocols.
Contractions were counted between 0 and 20 minutes after the injection. The animals were used once.

[4] = biological target: T3, recombinant human H2 histamine receptor (Homo sapiens, UniProt P25021); assay: Histamine H2 receptor radioligand binding; conditions: [125I]-Aminopotentidine 0.1 nM, human rCHO-K1 cell membranes; up to 30 μM
T3 construct: expressed in transfected cells; host or cells: CHO cells (membranes)
Method: as §1

[5] = biological target: T4, recombinant human H1 histamine receptor (Homo sapiens, UniProt P35367); assay: Histamine H1 receptor radioligand binding; conditions: for Ki: [3H]-Pyrilamine 1.2 nM, human rCHO cell membranes; for Fold change in binding affinity at H1: relative to Promethazine
T4 construct: expressed in transfected cells; host or cells: CHO cells (membranes)
Method: as §1

[6] = biological target: T5, recombinant human H4 histamine receptor (Homo sapiens, UniProt Q9H3N8); assay: Histamine H4 receptor radioligand binding; conditions: [3H]Histamine 8.2 nM, human rCHO-K1 cell membranes; up to 30 μM
T5 construct: expressed in transfected cells; host or cells: CHO cells (membranes)
Method: as §1

[7] = pKa determination (Sirius GLpKa); assay type: physicochemical
Method: (§2) A blank standardization has to be completed first and passed in order to conduct the compound experiments. The solutions used by the instrument for the blank titration include water, a pH solution, and a surfactant (TRITON X-100). The TRITON X-100 was purchased commercially from Sirus. The 0.5% solution of TRITON X-100 was used in the experiment. In a 1 L volumetric flask 5 mls of TRITON X-100 is added and MILLI Q water to volume. The vessels used by the instrument were filled to ⅓ of their volume with each solution. Therefore the assay tray contains one vessel for water, pH solution, and surfactant for the blank run. The temperature of the water bath for the instrument is 25° C. The blank is calculated as an average of three “good” experiments. The “good” was denoted by a green check mark next to the assay number in the computer software. Once the blank was run successfully the instrument was ready to conduct the experiments.
The pKa had to be determined first in order to calculate the Log P. The ΔPI is used to determine the pKa needed for the Log P experiment followed by the conjugates. Promethazine was first weighed into a vessel. […] The same procedure was followed for each PEG-Promethazine conjugate n=3-9. The vessels were placed in the assay tray of the instrument. A method had to be set up for the pKa run. The experimental parameters are entered into the computer software. These included sample weight, molecular weight, assay type (aqueous pKa), number of assays (three), and titration range (generally 3.5-12). The run was started. There are three measurements for each run that are averaged to obtain the final results from the data points collected in the calculation software. All runs were denoted as “good” by the green check mark next to the assay number.

Brain:plasma ratio = assay type: in vivo; conditions: rat, brain and plasma, iv; rats, 5 mg/kg intravenously, one hour after injection; brain (ng/g) / plasma (ng/mL)
Method: An hour following injection, the animals were sacrificed and plasma and brain were collected and frozen immediately. Following tissue and plasma extractions, concentrations of the compounds in brain and plasma were measured using LC-MS/MS. The brain:plasma ratio was calculated as the ratio of measured concentrations in the brain(ng/g) and plasma (ng/mL).

[8] = Log P determination (Sirius GLpKa); assay type: physicochemical; conditions: Partition Log P, average of three measurements
Method: as §2
An additional method has to be set up for the Log P determinations for each compound. […] The vessels are placed in the assay tray of the instrument. The experimental parameters are entered into the computer. These included sample weight, molecular weight, assay type (Partition Log P), number of assays (three), and pKa value of the parent drug from the previous experiment. The run was started. There are three measurements for each run that are averaged to obtain the final results from the data points collected in the calculation software. All runs were denoted as “good” by the green check mark next to the assay number.

[9] = biological target: T6, recombinant human M5 muscarinic acetylcholine receptor (Homo sapiens, UniProt P08912); assay: Muscarinic M5 receptor radioligand binding; conditions: 3H-N-Methylscopolamine 0.8 nM, CHO cell membranes
T6 construct: expressed in transfected cells; host or cells: CHO cells (membranes)
T6 sequence (P08912 1-532): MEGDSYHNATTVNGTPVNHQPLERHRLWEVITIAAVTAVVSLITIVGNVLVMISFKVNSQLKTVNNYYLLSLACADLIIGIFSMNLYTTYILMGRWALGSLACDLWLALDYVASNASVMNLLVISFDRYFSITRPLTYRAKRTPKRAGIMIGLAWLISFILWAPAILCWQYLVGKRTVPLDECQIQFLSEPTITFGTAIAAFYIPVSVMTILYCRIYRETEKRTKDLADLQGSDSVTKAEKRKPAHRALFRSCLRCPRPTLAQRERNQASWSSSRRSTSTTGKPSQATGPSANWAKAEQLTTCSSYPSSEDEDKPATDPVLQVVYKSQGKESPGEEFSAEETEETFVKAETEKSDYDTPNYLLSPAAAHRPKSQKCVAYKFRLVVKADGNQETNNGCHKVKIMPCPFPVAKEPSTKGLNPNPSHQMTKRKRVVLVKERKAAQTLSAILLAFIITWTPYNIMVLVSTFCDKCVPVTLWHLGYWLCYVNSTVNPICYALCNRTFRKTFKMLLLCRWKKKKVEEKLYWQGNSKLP

[10] = biological target: T7, recombinant human M4 muscarinic acetylcholine receptor (Homo sapiens, UniProt P08173); assay: Muscarinic M4 receptor radioligand binding; conditions: 3H-N-Methylscopolamine 0.8 nM, CHO cell membranes
T7 construct: expressed in transfected cells; host or cells: CHO cells (membranes)
T7 sequence (P08173 1-479): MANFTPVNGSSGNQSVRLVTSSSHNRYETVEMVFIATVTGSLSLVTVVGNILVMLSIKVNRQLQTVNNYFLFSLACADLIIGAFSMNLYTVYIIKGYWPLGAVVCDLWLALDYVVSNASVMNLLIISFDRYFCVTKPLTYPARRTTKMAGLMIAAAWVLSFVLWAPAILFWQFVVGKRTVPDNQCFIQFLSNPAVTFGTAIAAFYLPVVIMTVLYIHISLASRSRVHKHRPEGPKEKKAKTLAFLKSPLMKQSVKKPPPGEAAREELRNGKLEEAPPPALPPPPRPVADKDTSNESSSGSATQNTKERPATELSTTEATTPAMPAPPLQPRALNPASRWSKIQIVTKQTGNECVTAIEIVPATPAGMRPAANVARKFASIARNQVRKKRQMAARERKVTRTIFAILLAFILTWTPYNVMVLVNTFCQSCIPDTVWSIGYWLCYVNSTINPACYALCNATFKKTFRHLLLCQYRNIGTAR

[11] = aqueous solution, read-out: pKa

T4 sequence (P35367 whole entry): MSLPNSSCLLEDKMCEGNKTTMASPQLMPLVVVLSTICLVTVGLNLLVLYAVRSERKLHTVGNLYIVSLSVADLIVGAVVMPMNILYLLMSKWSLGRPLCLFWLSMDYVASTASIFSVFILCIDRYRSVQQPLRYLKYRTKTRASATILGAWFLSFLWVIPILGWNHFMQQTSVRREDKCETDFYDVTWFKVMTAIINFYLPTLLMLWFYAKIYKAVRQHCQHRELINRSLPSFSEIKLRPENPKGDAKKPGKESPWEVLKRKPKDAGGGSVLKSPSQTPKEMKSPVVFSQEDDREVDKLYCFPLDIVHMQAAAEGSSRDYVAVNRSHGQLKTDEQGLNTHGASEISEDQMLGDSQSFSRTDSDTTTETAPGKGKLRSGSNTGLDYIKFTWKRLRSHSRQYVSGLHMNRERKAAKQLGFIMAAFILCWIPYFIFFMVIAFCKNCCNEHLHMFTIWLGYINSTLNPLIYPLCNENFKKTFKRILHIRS
T1 sequence (Q9Y5N1 whole entry): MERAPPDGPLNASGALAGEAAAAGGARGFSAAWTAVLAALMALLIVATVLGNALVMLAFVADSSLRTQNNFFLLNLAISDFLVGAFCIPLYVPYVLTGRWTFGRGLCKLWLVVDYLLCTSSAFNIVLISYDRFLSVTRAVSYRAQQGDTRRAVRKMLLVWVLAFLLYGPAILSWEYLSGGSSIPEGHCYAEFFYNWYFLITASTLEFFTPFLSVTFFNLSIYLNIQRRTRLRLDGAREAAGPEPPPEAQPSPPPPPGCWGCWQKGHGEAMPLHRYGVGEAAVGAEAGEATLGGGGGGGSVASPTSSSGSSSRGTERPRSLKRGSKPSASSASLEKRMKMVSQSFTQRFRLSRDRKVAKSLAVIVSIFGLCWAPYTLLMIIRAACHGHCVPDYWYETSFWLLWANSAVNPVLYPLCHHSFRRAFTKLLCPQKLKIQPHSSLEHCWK
T3 sequence (P25021 whole entry): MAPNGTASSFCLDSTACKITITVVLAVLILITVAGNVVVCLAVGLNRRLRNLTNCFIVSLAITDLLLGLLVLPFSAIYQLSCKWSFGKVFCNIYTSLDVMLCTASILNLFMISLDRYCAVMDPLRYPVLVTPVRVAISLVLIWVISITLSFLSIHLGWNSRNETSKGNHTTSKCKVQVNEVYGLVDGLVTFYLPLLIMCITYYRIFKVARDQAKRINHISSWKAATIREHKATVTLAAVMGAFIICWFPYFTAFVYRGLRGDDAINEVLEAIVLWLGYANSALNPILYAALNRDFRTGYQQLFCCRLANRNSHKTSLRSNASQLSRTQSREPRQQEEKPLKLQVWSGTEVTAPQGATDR

Row | Ki [1] [nM] | Ki [2] [nM] | Ki [4] [nM] | Ki [5] [nM] | Fold change in binding affinity at H1 [5] | Ki [6] [nM] | pKa [7, 11] | Kp at 1 h (Brain:plasma ratio) | logP ([8]; read-out: LogP) | Ki [9] [nM] | pKa ([7]; aqueous pKa, 25° C., average of three measurements) | logP [8] | Compound | Acetic Acid Writhing Mean (% Morphine) [3] [% Morphine] | Ki [10] [nM]
1 | > 30000 | – | > 30000 | 7.16 | 25.76 | > 30000 | – | – | – | – | – | – | COCCOCCOCCOCCOCCOCc1ccc2c(c1)Sc1ccccc1N2CC(C)N(C)C (stereo not shown) [mPEG5-O-Promethazine, mPEG5-O-promethazine] | – | –
2 | > 30000 | 817 | > 30000 | 8.53 | 30.68 | > 30000 | 8.67 | 0.243 | 3.6 | – | – | – | COCCOCCOCCOCCOCCN(C)C(C)CN1c2ccccc2Sc2ccccc21 (stereo not shown) [mPEG5-N-Promethazine, mPEG5-N-promethazine] | – | –
3 | > 30000 | 90 | > 30000 | 16.9 | 60.79 | > 30000 | 8.49 | 0.112 | 3 | 905 | – | – | COCCOCCOCCOCCOCCOCCOCCN(C)C(C)CN1c2ccccc2Sc2ccccc21 (stereo not shown) [mPEG7-N-Promethazine, mPEG7-N-promethazine] | – | 435
4 | > 30000 | 337 | > 30000 | 13.2 | 47.48 | > 30000 | 8.53 | 0.098 | 3.25 | 1740 | – | – | COCCOCCOCCOCCOCCOCCN(C)C(C)CN1c2ccccc2Sc2ccccc21 (stereo not shown) [mPEG6-N-Promethazine, mPEG6-N-promethazine] | – | –
5 | > 30000 | – | > 30000 | 33.2 | 119.42 | > 30000 | – | – | – | – | – | – | COCCOCCOCCOCCOCCOCCOCCOCc1ccc2c(c1)Sc1ccccc1N2CC(C)N(C)C (stereo not shown) [mPEG7-O-Promethazine, mPEG7-O-promethazine] | – | –
6 | – | – | – | – | – | – | – | – | – | – | 8.238 | 2.648 | mPEG8-N-Promethazine | – | –
7 | > 30000 | – | > 30000 | 1.95 | 7.01 | > 30000 | 8.45 | 1.86 | 3.51 | – | – | – | COCCOCCOCCOCCN(C)C(C)CN1c2ccccc2Sc2ccccc21 (stereo not shown) [mPEG4-N-Promethazine, mPEG4-N-promethazine] | – | –
8 | > 30000 | – | > 30000 | 2.28 | 8.20 | > 30000 | 8.4 | – | 3.65 | – | – | – | COCCOCCOCCN(C)C(C)CN1c2ccccc2Sc2ccccc21 (stereo not shown) [mPEG3-N-Promethazine, mPEG3-N-promethazine] | – | –
9 | > 30000 | – | > 30000 | 7.62 | 27.41 | > 30000 | – | – | – | – | – | – | COCCOCCOCCOCc1ccc2c(c1)Sc1ccccc1N2CC(C)N(C)C (stereo not shown) [mPEG3-O-Promethazine, mPEG3-O-promethazine] | – | –
10 | > 30000 | – | > 30000 | 45.1 | 162.23 | > 30000 | – | – | – | – | – | – | COCCOCCOCCOCCOCCOCCOCCOCCOCCOCc1ccc2c(c1)Sc1ccccc1N2CC(C)N(C)C (stereo not shown) [mPEG9-O-Promethazine, mPEG9-O-promethazine] | – | –

Row | Compound | Ki [1] [nM] | Ki [2] [nM] | Ki [4] [nM] | Ki [5] [nM] | Fold change in binding affinity at H1 [5] | Ki [6] [nM] | pKa [7, 11] | Kp at 1 h (Brain:plasma ratio) | logP ([8]; read-out: LogP) | Ki [9] [nM] | pKa ([7]; aqueous pKa, 25° C., average of three measurements) | logP [8] | Acetic Acid Writhing Mean (% Morphine) [3] [% Morphine] | Ki [10] [nM]
11 | mPEG9-N-promethazine | > 30000 | 308 | > 30000 | – | – | – | – | – | – | – | – | – | −59.69 | –
12 | CC(CN1c2ccccc2Sc2ccccc21)N(C)C (stereo not shown) [Promethazine, reference compound] | > 30000 | 26.4 | > 30000 | – | – | > 30000 | 8.99 | – | 3.43 | 9.34 | – | – | – | 7.74

— patent publication US10869933B2, “Oligomer-phenothiazine conjugates” (Nektar Therapeutics, priority 2009, dated 2020)
